Consider 79 compounds from the RepoRT retention time repository.

Structures are written as SMILES.

A short description of this data set: Agilent ZORBAX 300 SB-C18, 150 × 1 mm, 3.5 µm; A: water + 0.01% heptafluorobutyric acid; B: acetonitrile + 0.01% heptafluorobutyric acid; gradient (min/%B) 0/0 100/90. The conditions noted are these: stereoisomer not certain.
With `O=C1CCCN1c1ccc(O)cc1`, the LC retention time was determined as 7.71 min.
On to `NCCN`, for which the LC retention time was determined as 5.99 min.
In the case of `Cc1ccc2cc(C)c(NCc3cccnc3)nc2c1` it was 8.55 min; in that of `COc1ccccc1NC(=O)C(=Cc1ccc(OC)c(OC)c1)NC(=O)c1ccccc1`, 13.5 min.
For `Cn1c2ccccc2c2nc3ccccc3nc21`, the LC retention time came to 14.5 min.
Consider `C=CCOc1ccccc1OCC(O)CNC(C)C` (centres undefined), for which the LC retention time is 9.94 min.
As for `Cc1cccc[n+]1CC(=O)c1ccccc1`, the LC retention time was 8.36 min.
The result for `Cc1ccc(C(=O)Nc2ccccc2C(=O)N2CCN(C)CC2)cc1` reads 8.88 min; that for `c1ccc2ncccc2c1`, 7.27 min.
In the case of `CCC(NC(C)C)C(O)c1ccc(O)c2[nH]c(=O)ccc12` (centres undefined) it was 7.81 min; in that of `c1ccc(CCN(Cc2ccncc2)Cc2ccccn2)cc1`, 8.96 min.
Regarding `Cc1ccc(-c2nn[nH]n2)cc1`, the LC retention time was determined as 9.59 min.
The result for `Nc1cccc(N)n1` reads 6.11 min.
In the case of `COc1ccc(C2N(c3ccccc3)CCN2c2ccccc2)cc1` it was 18.6 min; in that of `Cc1ccncc1C`, 6.82 min.
The result for `O=C(c1ccccc1)c1nc2ccccc2[nH]c1=O` reads 11.2 min; that for `c1ccc(C2=Nc3ccccc3Oc3ccccc32)cc1`, 18.1 min; that for `Cc1cccc(Cc2cnc[nH]2)c1C`, 9.65 min.
As to `O=C1c2ccccc2C(O)(c2ccccc2)N1C(c1ccccc1)c1ccccc1` (centres undefined), the LC retention time was determined as 16.8 min.
In the case of `c1ccc2nccnc2c1` it was 8.94 min; in that of `CCN1CCNCC1`, 6.67 min; in that of `O=Cc1cccc2ncccc12`, 8.73 min.
The result for `CCN1CCCCC1` reads 6.52 min; that for `OC(Cn1cccc1)c1ccccc1` (centres undefined), 11.8 min.
In the case of `CC(C)NC(=O)C(=O)NCCCO` it was 6.9 min; in that of `Cn1c2nc(=O)[nH]c(=O)c-2nc2ccccc21`, 8.38 min.
With `Cc1ccc(CNC(C)(C)C)s1`, the LC retention time worked out at 8.46 min.
On to `CC(=O)C=C(N)c1ccccc1`, for which the LC retention time amounted to 10.4 min.
The result for `CC(C)(C)c1ccc(C(CC(=O)O)NC(=O)c2ccccc2)cc1` (centres undefined) reads 13.7 min; that for `Cc1ccc2nc3nc(C)cc(C)c3c(N)c2c1`, 8.99 min; that for `CC(=CCc1ccccc1)N=Nc1nc(=S)[nH][nH]1`, 10.6 min.
The result for `COc1ccc(N=Nc2c(N)n[nH]c2N)cc1` reads 9.61 min; that for `Cc1cc2[nH]c(=O)[nH]c2cc1N`, 6.14 min.
Turning to `Cc1cccc(N(C)C)c1`, the LC retention time worked out at 8.26 min.
The result for `COc1ccc(C2NNc3nn(-c4ccccc4OC)nc32)cc1` (centres undefined) reads 13.6 min.
Consider `NC(=S)NC(N)=S`, for which the LC retention time amounted to 6.5 min.
In the case of `O=C(C=Cc1ccccc1)c1cc2ccccc2o1` it was 16.7 min; in that of `CC(C)CC1(C)NC(=S)N(c2ccccc2)N1` (centres undefined), 14.1 min.
The result for `Nc1ccc2cc3ccc(N)cc3nc2c1` reads 9.09 min; that for `O=C(O)C1Cc2ccccc2CN1C(=O)c1ccccc1` (centres undefined), 11.2 min; that for `CN(C)c1ccc(C(O)c2ccc(N(C)C)cc2)cc1`, 9.42 min.
As to `CCCCCCC=CC(C)=O`, the LC retention time is 16.2 min.
In the case of `Cc1cc(C)c2c(=O)n(CC(=O)NC(C)CCc3ccccc3)c(=O)n(C)c2n1` (centres undefined) it was 14.9 min; in that of `CC(=O)Nc1ccc(CC(C(=O)O)c2ccccc2)cc1` (centres undefined), 10.6 min.
The result for `Cc1ccc(-c2cc(C)c(C)cc2C)nc1` reads 10.6 min; that for `CN(C)CCC(=O)c1ccc2ccccc2c1`, 9.4 min.
The result for `COc1ccc(N)cc1` reads 7.59 min; that for `CC(=O)N(C)C1=C(N2CCCC2)C(=O)c2ccccc2C1=O`, 11.2 min; that for `O=C(O)Cc1c(C(=O)O)[nH]c2cc(C(=O)O)ccc12`, 7.47 min.
For `COCc1cc(=O)n2[nH]c(NC(C)=O)nc2n1`, the LC retention time stood at 6.11 min.
In the case of `CCCCN1CNC(=S)N(c2ccccc2C)C1` it was 12.6 min; in that of `CCOC(=O)C(Cc1ccc(NC(=O)c2ccccc2)cc1)N1C(=O)c2ccccc2C1=O` (centres undefined), 15.2 min; in that of `CC(=O)c1c[nH]cc1C`, 7.66 min.
In the case of `CCCCCCCCCC(=O)N(C)C` it was 16.6 min; in that of `CN(C)C1C(=O)C(C(=O)NCN2CCCC2)C(=O)C2(O)C(=O)C3C(=O)c4c(O)cccc4C(C)(O)C3CC12` (centres undefined), 8.91 min.
The result for `COc1cccc(C(=O)N(c2ccccc2)C2CC(C)N(C(C)=O)c3ccccc32)c1` (centres undefined) reads 14.3 min.
Turning to `CCN(CC)C(=O)c1ccc(O)c(OC)c1`, the LC retention time came to 9.39 min.
In the case of `c1ccc(-c2ccc3ccccc3n2)cc1` it was 13.1 min.
In the case of `Cn1c(=O)c2n[nH]c(=S)nc2n(C)c1=O` it was 7.17 min; in that of `O=C1CCC=C1CSc1ccccc1`, 13.1 min.
The result for `CCc1ccccc1NCC(=O)O` reads 11.1 min.
As to `CCOC(=O)c1c(C)n(-c2ccccc2)c2ccc(OC(C)=O)cc12`, the LC retention time worked out at 17 min.
`CN(C)c1ccc(C=NNc2nc3ccccc3c(=O)n2-c2ccccc2)cc1`: the LC retention time was found to be 14.3 min.
As for `CCOc1cc(NC(C)=O)ccc1C(=O)NN=Cc1cccc(Oc2ccccc2)c1`, the LC retention time was found to be 14.3 min.
The result for `CCn1c2ccccc2c2cc(C=Nn3c(C)cc(C)cc3=O)ccc21` reads 15.9 min; that for `CC(=O)Oc1ccc(C(=O)N2CCc3ccccc32)cc1`, 13.2 min.
Take `CC(C)CNCCN1CCOCC1`: the LC retention time was 7.31 min.
In the case of `O=C(c1ccc(CN2CCc3ccccc3C2)cc1)N(Cc1ccccc1)Cc1ccccc1` it was 12.5 min; in that of `Cn1c(C2CCCCC2)nc2ccccc21`, 9.55 min; in that of `CCc1cccnc1`, 6.88 min.
In the case of `O=C1c2ccccc2-c2nc3ccccc3nc21` it was 13 min; in that of `O=c1c2ccccc2nnn1Cc1ccncc1`, 8.31 min; in that of `CC(C)(C)Nc1ncnc2ccccc12`, 9.02 min.
The result for `CC(=O)Oc1ccc(-c2cnc3ccccc3n2)cc1` reads 13.9 min.
Turning to `Nc1ccc2[nH]c3c(c2c1)CCCC3`, the LC retention time was found to be 8.89 min.
In the case of `Cc1cc[n+](CCC(=O)O)c2ccccc12` it was 7.41 min.
For the compound `CC1CCCN(CC(O)CN)C1` (centres undefined), the LC retention time is 7.32 min.
In the case of `Cc1cccc2c1CC(C)(C)NC2=S` it was 13.3 min; in that of `Cc1ccc(-c2cnc3ccccc3n2)cc1`, 16.3 min.
